Data as given in patent US6737383B1, “Herbicidal oxadiazolidines” (priority 1999, dated 2004).

What was measured:
soybean = experiment: Test B pre/postemergence soybean; assay type: in vivo, Glycine max
Procedure, shortened: (§1)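 Herbicidal effect was estimated by eye on a ten-point control scale after plants spent twelve to sixteen days in a greenhouse following soil or foliar treatment. Foliar sprays targeted plants at one to four leaves; all doses were formulated in a non-phytotoxic solvent with surfactant.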

wild oat = experiment: Test B pre/postemergence wild oat; assay type: in vivo, Avena fatua
Procedure, shortened: as §1

smallflower flatsedge = experiment: Test B flood test smallflower flatsedge; assay type: in vivo, Cyperus difformis
Procedure, shortened: (§2)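 Flood test on plants grown to the 2-leaf stage; treated plants kept in greenhouse twelve to sixteen days, then visually rated against controls on a 0 (no effect) to 10 (complete control) scale.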

wheat = experiment: Test B pre/postemergence wheat; assay type: in vivo, Triticum aestivum
Procedure, shortened: as §1

corn = experiment: Test B pre/postemergence corn; assay type: in vivo, Zea mays
Procedure, shortened: as §1

pigweed = experiment: Test B pre/postemergence pigweed; assay type: in vivo, Amaranthus retroflexus
Procedure, shortened: as §1

sugar beet = experiment: Test B pre/postemergence sugar beet; assay type: in vivo, Beta vulgaris
Procedure, shortened: as §1

cocklebur = experiment: Test B pre/postemergence cocklebur; assay type: in vivo, Xanthium strumarium
Procedure, shortened: as §1

purple nutsedge = experiment: Test B pre/postemergence purple nutsedge; assay type: in vivo, Cyperus rotundus
Procedure, shortened: as §1

giant foxtail = experiment: Test B pre/postemergence giant foxtail; assay type: in vivo, Setaria faberii
Procedure, shortened: as §1

surinam grass = experiment: Test B pre/postemergence surinam grass; assay type: in vivo, Brachiaria decumbens
Procedure, shortened: as §1

bedstraw = experiment: Test B pre/postemergence bedstraw; assay type: in vivo, Galium aparine
Procedure, shortened: as §1

duck salad = experiment: Test B flood test duck salad; assay type: in vivo, Heteranthera limosa
Procedure, shortened: as §2

velvetleaf = experiment: Test B pre/postemergence velvetleaf; assay type: in vivo, Abutilon theophrasti
Procedure, shortened: as §1

rice = experiment: Test B flood test rice; assay type: in vivo, Oryza sativa
Procedure, shortened: as §2

rape = experiment: Test B pre/postemergence rape; assay type: in vivo, Brassica napus
Procedure, shortened: as §1

[1] = Postemergence, Rate 62 g/ha, scale 0 to 10, 0 is no effect, 10 is complete control
[2] = Postemergence, Rate 250 g/ha, scale 0 to 10, 0 no effect, 10 complete control
[3] = Preemergence, Rate 62 g/ha, scale 0 to 10, 0 is no effect, 10 is complete control
[4] = Preemergence, Rate 125 g/ha, scale 0 to 10 (0 no effect, 10 complete control)
[5] = Preemergence, Rate 250 g/ha, scale of 0 to 10 where 0 is no effect and 10 is complete control
[6] = Preemergence, Rate 500 g/ha, scale 0 (no effect) to 10 (complete control)
[7] = Rate 125 g/ha, Postemergence, scale 0 to 10, 0 no effect, 10 complete control
[8] = Rate 125 g/ha, Postemergence section (flood test species), scale 0 to 10, 0 no effect, 10 complete control
[9] = Rate 125 g/ha, Pre-emergence, flood test species, scale 0 to 10 where 0 is no effect and 10 is complete control
[10] = Rate 250 g/ha, headed Pre-emergence (flood test species), scale 0 to 10 (0 no effect, 10 complete control)
[11] = Rate 500 g/ha, headed Pre-emergence (flood test species), scale 0 to 10 (0 no effect, 10 complete control)
[12] = flood test, listed under Postemergence, Rate 250 g/ha, scale 0 to 10, 0 no effect, 10 complete control
[13] = Rate 500 g/ha, Postemergence, 0 to 10 scale (0 no effect, 10 complete control)
[14] = Rate 500 g/ha, Postemergence section of Table B, 0 to 10 scale (0 no effect, 10 complete control)
[15] = Rate 1000 g/ha, Pre-emergence (as headed), scale 0 to 10

In the case of COc1ccc(-n2c(=O)on(C(=O)N(c3ccc(F)cc3)C(C)C)c2=O)c(C)c1 [Compound 35], the “Soybean plant response rating” value (soybean; [1]) is reported as 1, the “Soybean plant response rating” value (soybean; [2]) is reported as 1 and the “Plant response rating, Soybean” value (soybean; [3]) is reported as 0. For the same compound, the “Plant response rating, Soybean” value (soybean; [4]) was 0, the “Plant response rating, Soybean” value (soybean; [5]) was 0 and the “Soybean plant response rating” value (soybean; [6]) was 0. The “Soybean plant response rating” value (soybean; [7]) was 1, the “Wild oats plant response rating” value (wild oat; [1]) was 0 and the “Wild oats plant response rating” value (wild oat; [2]) was 0. For the same compound, the “Plant response rating, Wild oats” value (wild oat; [4]) was 0, the “Plant response rating, Wild oats” value (wild oat; [5]) was 2 and the “Wild oats plant response rating” value (wild oat; [6]) was 6. The “Wild oats plant response rating” value (wild oat; [7]) was 0, the “S. Flatsedge plant response rating” value (smallflower flatsedge; [1]) was 0 and the “S. Flatsedge plant response rating” value (smallflower flatsedge; Pre-emergence, Rate 1000 g/ha, scale 0 to 10 (0 no effect, 10 complete control)) was 0. The “S. Flatsedge plant response rating” value (smallflower flatsedge; [8]) was 0, the “S. Flatsedge plant response rating” value (smallflower flatsedge; [9]) was 0 and the “S. Flatsedge plant response rating” value (smallflower flatsedge; [10]) was 0. For the same compound, the “Plant response rating, S. Flatsedge” value (smallflower flatsedge; [11]) was 0, the “S. Flatsedge plant response rating” value (smallflower flatsedge; [12]) was 0 and the “Wheat plant response rating” value (wheat; [1]) was 0. The “Wheat plant response rating” value (wheat; [2]) was 0, the “Plant response rating, Wheat” value (wheat; [3]) was 0 and the “Plant response rating, Wheat” value (wheat; [4]) was 0. For the same compound, the “Plant response rating, Wheat” value (wheat; [5]) was 0, the “Wheat plant response rating” value (wheat; [6]) was 0 and the “Wheat plant response rating” value (wheat; [7]) was 0. For the same compound, the “Corn plant response rating” value (corn; [1]) was 0, the “Corn plant response rating” value (corn; [2]) was 0 and the “Plant response rating, Corn” value (corn; [3]) was 0. The “Plant response rating, Corn” value (corn; [4]) was 0, the “Plant response rating, Corn” value (corn; [5]) was 0 and the “Corn plant response rating” value (corn; [6]) was 0. For the same compound, the “Corn plant response rating” value (corn; [7]) was 0, the “Corn plant response rating” value (corn; [13]) was 0 and the “Redroot pigweed plant response rating” value (pigweed; [1]) was 0. The “Redroot pigweed plant response rating” value (pigweed; [2]) was 9, the “Plant response rating, Redroot pigweed” value (pigweed; [3]) was 0 and the “Plant response rating, Redroot pigweed” value (pigweed; [4]) was 0. The “Plant response rating, Redroot pigweed” value (pigweed; [5]) was 0, the “Redroot pigweed plant response rating” value (pigweed; [6]) was 0 and the “Redroot pigweed plant response rating” value (pigweed; [7]) was 7. For the same compound, the “Redroot pigweed plant response rating” value (pigweed; [13]) was 9, the “Sugarbeets plant response rating” value (sugar beet; [1]) was 0 and the “Plant response rating, Sugarbeets” value (sugar beet; [3]) was 0. The “Plant response rating, Sugarbeets” value (sugar beet; [4]) was 0, the “Plant response rating, Sugarbeets” value (sugar beet; [5]) was 0 and the “Sugarbeets plant response rating” value (sugar beet; [6]) was 0. For the same compound, the “Sugarbeets plant response rating” value (sugar beet; [7]) was 3, the “Cocklebur plant response rating” value (cocklebur; [1]) was 0 and the “Cocklebur plant response rating” value (cocklebur; [2]) was 4. For the same compound, the “Plant response rating, Cocklebur” value (cocklebur; [3]) was 0, the “Plant response rating, Cocklebur” value (cocklebur; [4]) was 0 and the “Plant response rating, Cocklebur” value (cocklebur; [5]) was 0. For the same compound, the “Cocklebur plant response rating” value (cocklebur; [6]) was 0, the “Cocklebur plant response rating” value (cocklebur; [7]) was 2 and the “Cocklebur plant response rating” value (cocklebur; [13]) was 5. The “Nutsedge plant response rating” value (purple nutsedge; [1]) was 0, the “Nutsedge plant response rating” value (purple nutsedge; [2]) was 0 and the “Plant response rating, Nutsedge” value (purple nutsedge; [3]) was 0. For the same compound, the “Plant response rating, Nutsedge” value (purple nutsedge; [4]) was 0, the “Plant response rating, Nutsedge” value (purple nutsedge; [5]) was 0 and the “Nutsedge plant response rating” value (purple nutsedge; [6]) was 0. The “Nutsedge plant response rating” value (purple nutsedge; [7]) was 0, the “Nutsedge plant response rating” value (purple nutsedge; [13]) was 0 and the “Giant foxtail plant response rating” value (giant foxtail; [1]) was 0. For the same compound, the “Giant foxtail plant response rating” value (giant foxtail; [2]) was 1, the “Plant response rating, Giant foxtail” value (giant foxtail; [3]) was 3 and the “Plant response rating, Giant foxtail” value (giant foxtail; [4]) was 7. For the same compound, the “Plant response rating, Giant foxtail” value (giant foxtail; [5]) was 10, the “Giant foxtail plant response rating” value (giant foxtail; [6]) was 10 and the “Giant foxtail plant response rating” value (giant foxtail; [7]) was 0. The “Giant foxtail plant response rating” value (giant foxtail; [13]) was 7, the “B. signalgrass plant response rating” value (surinam grass; [1]) was 0 and the “B. signalgrass plant response rating” value (surinam grass; [2]) was 0. For the same compound, the “Plant response rating, B. signalgrass” value (surinam grass; [3]) was 0, the “Plant response rating, B. signalgrass” value (surinam grass; [4]) was 0 and the “Plant response rating, B. signalgrass” value (surinam grass; [5]) was 3. For the same compound, the “B. signalgrass plant response rating” value (surinam grass; [6]) was 7, the “B. signalgrass plant response rating” value (surinam grass; [7]) was 0 and the “B. signalgrass plant response rating” value (surinam grass; [13]) was 0. For the same compound, the “Bedstraw plant response rating” value (bedstraw; [1]) was 0, the “Bedstraw plant response rating” value (bedstraw; [2]) was 3 and the “Plant response rating, Bedstraw” value (bedstraw; [3]) was 0. The “Plant response rating, Bedstraw” value (bedstraw; [4]) was 0, the “Plant response rating, Bedstraw” value (bedstraw; [5]) was 0 and the “Bedstraw plant response rating” value (bedstraw; [6]) was 0. The “Bedstraw plant response rating” value (bedstraw; [7]) was 2, the “Bedstraw plant response rating” value (bedstraw; [13]) was 6 and the “Ducksalad plant response rating” value (duck salad; [1]) was 0. The “Ducksalad plant response rating” value (duck salad; [8]) was 0, the “Ducksalad plant response rating” value (duck salad; [9]) was 0 and the “Ducksalad plant response rating” value (duck salad; [10]) was 0. The “Ducksalad plant response rating” value (duck salad; [14]) was 0, the “Plant response rating, Ducksalad” value (duck salad; [11]) was 0 and the “Ducksalad plant response rating” value (duck salad; [15]) was 0. The “Ducksalad plant response rating” value (duck salad; [12]) was 0, the “Velvetleaf plant response rating” value (velvetleaf; [1]) was 0 and the “Velvetleaf plant response rating” value (velvetleaf; [2]) was 0. The “Plant response rating, Velvetleaf” value (velvetleaf; [3]) was 0, the “Plant response rating, Velvetleaf” value (velvetleaf; [4]) was 0 and the “Plant response rating, Velvetleaf” value (velvetleaf; [5]) was 0. The “Velvetleaf plant response rating” value (velvetleaf; [6]) was 0, the “Velvetleaf plant response rating” value (velvetleaf; [7]) was 0 and the “Rice plant response rating” value (rice; [1]) was 0. For the same compound, the “Rice plant response rating” value (rice; [8]) was 0, the “Rice plant response rating” value (rice; [9]) was 0 and the “Rice plant response rating” value (rice; [10]) was 0. For the same compound, the “Rice plant response rating” value (rice; [14]) was 0, the “Plant response rating, Rice” value (rice; [11]) was 0 and the “Rice plant response rating” value (rice; [15]) was 0. The “Rice plant response rating” value (rice; [12]) was 0, the “Rape plant response rating” value (rape; [1]) was 0 and the “Rape plant response rating” value (rape; [2]) was 0. The “Plant response rating, Rape” value (rape; [3]) was 0, the “Plant response rating, Rape” value (rape; [4]) was 0 and the “Plant response rating, Rape” value (rape; [5]) was 0. For the same compound, the “Rape plant response rating” value (rape; [6]) was 0, the “Rape plant response rating” value (rape; [7]) was 0 and the “Rape plant response rating” value (rape; [13]) was 2.
